Results: paper PMC9927515, “Discovery and Mechanism of Action of a Novel Antimicrobial Peptide from an Earthworm” (Microbiology Spectrum, 2023)
Where no end group is shown, it is not given here.

Legend:
sheep blood = type: cell-based
Protocol: Sterile defibrinated sheep blood (Titan, Shanghai, China) was kept at 4°C and was used within 3 days after being received. Hemolysis assessment was conducted following the method of Liu et al. ([34]). The hemolysis rate was calculated using the following formula: hemolysis rate = [([…] sample - […] blank)/([…] 0.2% Triton X-100 - […] blank)] × 100.

[1] = Sensitivity to pH (residual antibacterial rate); type: physicochemical; details: pH adjusted to 2-12, back to 7.4 after 1 h; residual antibacterial rate by MIC method, OD600; especially in E. coli; Fig. S2b
Protocol: (§1) The AMP was treated for 1 h with a water bath heated at 50, 60, 70, 80, 90, or 100°C to evaluate temperature sensitivity, while the pH was adjusted to 2, 4, 6, 8, 10, and 12 and then back to 7.4 after 1 h to evaluate pH sensitivity. The changes in antibacterial activity were determined using the MIC method, as follows: antibacterial rate = [(OD600 positive control − OD600 sample)/(OD600 positive control − OD600 negative control)] × 100, where OD600 is the optical density at 600 nm.
(§2) Table S1 Sequences of 21 synthetic peptides
(§3) Table S3 Sequences and MICs of derivatives of EWAMP.15
(§4) Table S4 Sequences and MICs of Alanine scanning derivatives
(§5) Table S5 Sequences and MICs of Arg and Lys derivatives
(§6) Table S6 Summary of membrane thickness
(§7) Table S7 Primers used in RT-PCR
(§8) Fig. S1 MICs of EWAMP.15 12 -24 derivatives that were replaced in different sites. In
(§9) the X-axis, the number and the letter represent the replaced site and the amino acid residue.
(§10) Fig. S2 Physical stability and in vitro toxicity of EWAMP-R. (a) Residual antibacterial
(§11) rates after water heating for 1 h showing the temperature stability. (b) Residual antibacterial
(§12) rates after acid or alkaline solution treatment showing the pH stability. (c) Hemolytic
(§13) and negative controls. (d) Cell survival rate of LO2 after EWAMP-R treatment. All the cell
(§14) survival rate was above 95%.
(§15) Fig. S3 Root-mean-squared deviation (RMSD) and root-mean-squared fluctuation […]

[2] = Sensitivity to temperature (residual antibacterial rate); type: physicochemical; details: water bath 50-100°C for 1 h; residual antibacterial rate by MIC method, OD600; especially in E. coli; Fig. S2a
Protocol: as §1, §2, §3, §4, §5, §6, §7, §8, §9, §10, §11, §12, §13, §14, §15

**Q.** What does the source list for RIWWSGGWRRWRW [EWAMP-R]?
**A.** hemolytic activity: absorbance in treatment groups versus negative controls (sheep blood): not significantly different; stability of antibacterial activity under pH changes [1]: comparative stability; stability of antibacterial activity under temperature changes [2]: comparative stability
